Source: patent US10745402B2, “Morphinan derivatives and use thereof” (PURDUE PHARMA L.P., priority 2017, dated 2020)

How the values were obtained:
Sprague-Dawley rats [1] = test: Hot plate analgesia in rats (observation of sedation); assay type: in vivo, rat
Procedure: To assess the actions of a Compound of the present disclosure for the treatment or prevention of acute pain, the rat hot plate test can also be used. Rats are tested using a hot plate apparatus consisting of a clear plexiglass cylinder with a heated metal floor maintained at a temperature of 48-52° C. (Model 7280, commercially available from Ugo Basile of Italy). […] Hot plate latencies are measured immediately before (pre-treatment) and 1, 3, and 5 hours following administration of a Compound of the present disclosure. The nocifensive behavioral endpoint is defined as any of the following: 1) paw withdrawal, either as a sustained lift or with shaking or licking; 2) alternating foot lifting; 3) escape or attempted escape from the testing device; or 4) vocalization. Data are expressed as response latency(s) and the percentage of the maximal possible effect is calculated as described above for the tail flick test. […]
Male, Sprague-Dawley rats (Harlan, weight 211-246 g; n=5-10/group) were baselined (“BL”) for latency on a hot plate which was set to 52° C. the day prior to dosing. […] The next day, vehicle (0.5% MC) po, Compound 1 po; or morphine sc, the positive control, were administered and thermal latency was assessed 1, 3, and 5 hours after dosing.
Data were analyzed by a two-way ANOVA using a Bonferroni Multiple Comparisons test, where *P<0.05 and ****P<0.0001 vs vehicle. […]

κ-opioid receptor [2] = biological target: T1, κ-opioid receptor (Homo sapiens, UniProt P41145); test: β-Arr2 activity response in U2OS cells, κ-opioid receptor; assay type: cell-based; design: expressed in transfected cells; host or cells: U2OS (U-2 OS)
Procedure: (§1) TABLE 4 provides activity response of certain Compounds of the present disclosure to the μ- and κ-opioid receptors that was determined in the above-described functional assays using U2OS cells.

μ-opioid receptor [3] = biological target: T2, μ-opioid receptor (Homo sapiens, UniProt P35372); test: [35S]GTPγS functional assay, μ-opioid receptor (HEK-293 or CHO cells); assay type: biochemical; design: made in house; host or cells: HEK-293 or CHO
Procedure: [^35S]GTPγS functional assays were conducted using freshly thawed μ-receptor membranes prepared in-house from a cell line expressing recombinant μ opioid receptor in a HEK-293, CHO or U-2 OS cell background, or purchased from a commercial source (Perkin Elmer, Shelton, Conn.; or DiscovRx, Fremont, Calif.). Assay reactions were prepared by sequentially adding the following reagents to binding buffer (100 mM NaCl, 10 mM MgCl2, 20 mM HEPES, pH 7.4) on ice (final concentrations indicated): membrane protein (0.026 mg/mL), saponin ([…]), GDP ([…]) and [^35S]GTPγS (0.20 nM; Perkin Elmer, Shelton, Conn.). The prepared membrane solution (190 μl/well) was transferred to 96-shallow well polypropylene plates containing 10 μl of 20× concentrated stock solutions of the agonist [D-Ala^2, N-methyl-Phe^4 Gly-ol^5]-enkephalin (DAMGO) prepared in dimethyl sulfoxide (DMSO). Plates were incubated for 30 min at about 25° C. with shaking. […] BetaScint scintillation cocktail (Perkin Elmer, Shelton, Conn.) was added (50 μl/well) and plates were counted using a Packard Top-Count for 1 min/well. Data were analyzed using the sigmoidal dose-response curve fitting functions in GraphPad PRISM v. […]
(§2) TABLE 3 provides activity response of certain Compounds of the present disclosure to the μ- and κ-opioid receptors that was determined in the above-described functional assays using HEK-293 or CHO cells.

κ-opioid receptor [4] = biological target: T1, κ-opioid receptor; test: [35S]GTPγS functional assay, κ-opioid receptor (HEK-293 or CHO cells); assay type: biochemical; design: made in house; host or cells: HEK-293 or CHO
Procedure: Membranes from HEK-293 cells, CHO or U-2 OS cells expressing the recombinant human kappa opioid receptor (κ) were prepared by lysing cells in ice cold hypotonic buffer (2.5 mM MgCl2, 50 mM HEPES, pH 7.4) (10 mL/10 cm dish) followed by homogenization with a tissue grinder/Teflon pestle. Membranes were collected by centrifugation at 30,000×g for 15 min at 4° C. and pellets were resuspended in hypotonic buffer to a final concentration of 1-3 mg/mL. Protein concentrations were determined using the BioRad protein assay reagent with bovine serum albumen as standard. Aliquots of κ receptor membranes were stored at −80° C.
Functional [^35S]GTPγS binding assays were conducted as follows. κ opioid receptor membrane solution was prepared by sequentially adding final concentrations of 0.026 μg/μl κ membrane protein (in-house), 10 μg/mL saponin, 3 μM GDP and 0.20 nM [^35S]GTPγS to binding buffer (100 mM NaCl, 10 mM MgCl2, 20 mM HEPES, pH 7.4) on ice. […] Fifty μl/well scintillation cocktail (Perkin Elmer, Shelton, Conn.) was added and plates were counted in a Packard Top-Count for 1 min/well.
as §2

μ-opioid receptor [5] = biological target: T2, μ-opioid receptor; test: β-Arr2 activity response in U2OS cells, μ-opioid receptor; assay type: cell-based
Procedure: as §1

Sprague-Dawley rats [6] = test: Conditioned Place Preference (CPP) in rats; assay type: in vivo, rat; conditions: po in 0.5% MC, day 8, one-way ANOVA
From the text: Conditioned Place Preference (CPP) test is a test typically used to measure drug liking.
Male, Sprague-Dawley rats (Harlan, weight 213-240 g) at the beginning of the dosing paradigm were baselined (“BL”) for initial preference (pretest; day 1) using automated conditioning chambers (MedAssociates, Fairfax, Vt.); n=10/group. An unbiased counterbalanced design was used in which rats were randomly assigned to each group with respect to compartment pairings based on weight.
Compound 1 was formulated in 0.5% MC and administered po., while oxycodone, the positive control was dissolved in saline and administered sc.
During the first conditioning session, half of the rats were confined to the black compartment paired with either vehicle (0.5% MC) po, oxycodone sc, or Compound 1 po administration, while the other half were placed in white compartment with similar pairings.
Rats were conditioned on alternate days for 6 total sessions (3 vehicle/3 oxycodone or Compound 1). Control rats received vehicle at each conditioning session. […]
Conditioned Place Preference (CPP) was determined on day 8, and is represented as the difference between the time (seconds) the rat spent in the drug-paired and vehicle-paired compartments. Data are represented as the means±S.E.M., and were analyzed by a one-way ANOVA where *P<0.05 vs vehicle.

T1 sequence (P41145 whole entry): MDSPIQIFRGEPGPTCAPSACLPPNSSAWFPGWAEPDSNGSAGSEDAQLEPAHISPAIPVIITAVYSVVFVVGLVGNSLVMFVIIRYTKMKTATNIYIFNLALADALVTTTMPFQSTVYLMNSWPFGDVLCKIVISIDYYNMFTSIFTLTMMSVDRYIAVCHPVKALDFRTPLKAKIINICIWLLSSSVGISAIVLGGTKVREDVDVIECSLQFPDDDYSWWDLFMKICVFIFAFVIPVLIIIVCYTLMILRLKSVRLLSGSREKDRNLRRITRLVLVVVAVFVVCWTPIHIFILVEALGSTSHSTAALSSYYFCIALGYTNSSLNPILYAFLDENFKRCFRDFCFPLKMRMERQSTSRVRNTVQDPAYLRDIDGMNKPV
T2 sequence (P35372 whole entry, species assumed): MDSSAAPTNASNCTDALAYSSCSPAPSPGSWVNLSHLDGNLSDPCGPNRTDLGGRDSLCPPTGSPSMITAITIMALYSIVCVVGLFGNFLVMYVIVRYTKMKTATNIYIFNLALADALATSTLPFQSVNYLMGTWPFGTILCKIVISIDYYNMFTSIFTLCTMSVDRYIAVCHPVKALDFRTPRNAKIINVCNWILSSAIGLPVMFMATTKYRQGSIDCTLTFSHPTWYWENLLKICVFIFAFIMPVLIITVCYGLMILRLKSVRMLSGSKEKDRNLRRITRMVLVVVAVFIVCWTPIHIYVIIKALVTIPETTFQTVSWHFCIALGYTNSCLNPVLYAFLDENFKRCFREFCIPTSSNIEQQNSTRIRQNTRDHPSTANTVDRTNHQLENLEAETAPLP

Row | Structure (SMILES) | appearance of animals (sedation) in hot plate study (Sprague-Dawley rats [1]; 30-75 mg/kg po) | EC50 (κ-opioid receptor [2]) [nM] | Emax (κ-opioid receptor [2]; U2OS cells) [%] | EC50 (μ-opioid receptor [3]) [nM] | Emax (μ-opioid receptor [3]; HEK-293 or CHO cells, relative to DAMGO, read-out: GTPγD μ Emax) [%] | EC50 (κ-opioid receptor [4]) [nM] | Emax (κ-opioid receptor [4]; HEK-293 or CHO cells, relative to U69,593, read-out: GTPγD κ Emax) [%] | EC50 (μ-opioid receptor [5]) [nM] | Emax (μ-opioid receptor [5]; U2OS cells) [%] | Conditioned Place Preference compared to the vehicle group (Sprague-Dawley rats [6]) | appearance of animals (sedation) in hot plate study (Sprague-Dawley rats [1]; sc, positive control)
1 | CN1CC[C@]23CCCC[C@@]2(O)[C@H]1Cc1ccc(C(N)=O)cc13 [Compound 1, (4bS,8aS,9R)-8a-hydroxy-11-methyl-6,7,8,8a,9,10-hexahydro-5H-9,4b-(epiminoethano)phenanthrene-3-carboxamide] | appeared to be sedate | > 20000 | -0.83 ± 0.17 | 44.2 ± 11.9 | 50.5 ± 0.95 | 620 ± 91.1 | 14.9 ± 0.63 | 36.7 ± 5.4 | 8.58 ± 0.3 | not statistically significant | –
2 | CN1CC[C@]23c4c5ccc(O)c4O[C@H]2[C@@H](O)C=C[C@H]3[C@H]1C5 [morphine, reference compound] | – | – | – | – | – | – | – | – | – | – | appeared to be sedate
